The values that follow come from US20250195520A1, “COMBINATION THERAPY USING A PTPN11 INHIBITOR AND AN EGFR INHIBITOR” (NAVIRE PHARMA, INC., priority 2021, published 2025).

“Also recorded” adds a separate entry of the source.

Assay [1] addresses T1, PTPN11-E76K mutant enzyme (Homo sapiens, UniProt Q06124, E76K).
T1 sequence (Q06124 1-593 E76K): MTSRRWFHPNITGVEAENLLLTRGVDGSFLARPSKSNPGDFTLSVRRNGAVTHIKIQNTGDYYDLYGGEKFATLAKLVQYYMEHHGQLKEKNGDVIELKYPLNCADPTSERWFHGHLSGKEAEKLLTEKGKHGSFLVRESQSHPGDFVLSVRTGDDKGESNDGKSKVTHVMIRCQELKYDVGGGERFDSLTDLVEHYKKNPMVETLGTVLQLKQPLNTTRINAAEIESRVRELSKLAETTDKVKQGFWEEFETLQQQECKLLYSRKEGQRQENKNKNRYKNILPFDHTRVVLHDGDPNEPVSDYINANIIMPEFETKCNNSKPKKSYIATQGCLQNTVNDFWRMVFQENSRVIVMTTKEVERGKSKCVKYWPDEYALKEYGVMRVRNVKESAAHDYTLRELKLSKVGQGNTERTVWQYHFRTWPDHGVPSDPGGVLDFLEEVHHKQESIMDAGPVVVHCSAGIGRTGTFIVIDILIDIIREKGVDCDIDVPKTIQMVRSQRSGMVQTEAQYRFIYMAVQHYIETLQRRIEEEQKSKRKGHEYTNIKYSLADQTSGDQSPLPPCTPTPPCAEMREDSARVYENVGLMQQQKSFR
As to conditions: e.g. PTPN11-E76K mutant enzyme; stated as 'in certain embodiments'; read-out: IC50 for inhibition of PTPN11; cited from earlier work.

The subject of assay [2] is DUSP6 mRNA in HCC827-ER1 tumors. Briefly: In vivo pharmacodynamic assay, Taqman qRT-PCR of DUSP6 in HCC827-ER1 xenograft tumors. The arrangement: species or system mouse. The procedure:
In vivo modeling, treatment and data analysis. […] Dosing started ˜3 weeks after the subcutaneous implantation of the tumor cells. Dosing volume was 5 mL/kg for each compound, and was adjusted based on individual mouse weight. Dosing and sample harvesting followed the schedule below. There was a 6-hour interval between the morning dose and the afternoon dose, and tumor/plasma samples were harvested at three timepoints during the 24-hour dosing cycle.

For assay [3], the system named is NCI-H1975 (C797S+) tumors. Briefly: NCI-H1975 (C797S+) tumor model, tumor volume. The format is in vivo, mouse.
In assay [4] the test system is HCC4006-OsiR cells. Briefly: In vitro clonogenic assay (crystal violet, Bliss score), HCC4006-OsiR. The format is cell-based, human. The conditions noted are these: 14-day clonogenic assay. The procedure:
(§1) In vitro clonogenic assay. […] Compounds were prediluted in media at 4x the final concentration, and the final DMSO concentration was 0.2% in 1 mL of media per 24-well. After 12˜14 days of treatment, the plates were stained with crystal violet solution.
(§2) Crystal violet staining, quantification and Bliss score calculation. The 0.1% crystal violet staining solution was prepared by mixing 100 mL of 1% crystal violet solution (Sigma #V5265), 100 mL of 100% ethanol and 800 mL of ddH2O. […] After removal of DPBS, 0.5 mL of 0.1% crystal violet staining solution was added to each 24-well. The plates were incubated at room temperature for 30 min. The staining solution was removed from wells and discarded. Each well was then washed with 1 mL of ddH2O. Afterwards, the plates were dipped in a large bucket filled with tap water 2˜4 times until the supernatant became colorless. […]
(§3) The OD590 readings (multiplied by the dilution factor) were normalized to the average of DMSO treated samples, using Microsoft Excel. The Bliss expectation was calculated with the equation (A+B)−A×B/100, where A and B were the percentage growth inhibition induced by agents A and B at a given dose. Bliss score is the difference between the detected growth inhibition (%) caused by the combination of the two agents and the bliss expectation. […]

Assay [5] concerns HCC4006 cells. Briefly: In vitro 3-day proliferation assay (CellTiter-Glo 2.0), HCC4006. The format is cell-based. The conditions noted are these: Homo sapiens, 72 h, HCC4006 parental cells. Here is the method: (§4) Cell lines. The HCC4006 cell line was purchased from ATCC. […] The cells were cultured in RPMI-1640 containing 4 mM glutamax (Thermo Fisher #72400-120)+10% fetal bovine serum (FBS, Sigma #F2442) in 37° C. tissue culture incubator with 5% CO2 (NUAIRE, NU-5510).
(§5) In vitro 3-day proliferation assay. HCC4006 or HCC4006-OsiR cells were plated in 96-well plates (Corning #3603) at 1,500 cells per well in 100 μL of media (RPMI-1640+10% FBS) and allowed to attach overnight. […] Final DMSO concentration was 0.1%. After 3 days of treatment, viable cell numbers were determined using CellTiter-Glo 2.0 cell viability assay (Promega #G9241).
(§6) CellTiter-Glo 2.0 cell viability assay. CellTiter-Glo 2.0 cell viability assay (Promega #G9241) was used to determine the relative viable cell number, following manufacturer's protocols. Briefly, 100 μL CellTiter-Glo reagent was added to each well in the 96-well plate. The plate was put on a VWR advanced 3500 orbital shaker (VWR #89032-096) at 100 rpm shaking for 5 min at room temperature, then incubated at room temperature for 15 min, protected from the light. Afterwards, luminescence was quantified using a PheraStar plate reader (BMG Labtech). The luminescence readings were normalized to the average of DMSO treated samples of each cell line, using Microsoft Excel. Data were plotted in GraphPad Prism 8.0. Non-linear fit was used to generate the dose response curve. […]

The subject of assay [6] is HCC4006 cells. Briefly: In vitro clonogenic assay (crystal violet, Bliss score), HCC4006. The format is cell-based. As to conditions: Homo sapiens, 336 h; HCC4006, 14-day clonogenic assay. Here is the method: as §1, §2, §3
The test system of assay [7] is HCC4006-OsiR cells. Briefly: In vitro 3-day proliferation assay (CellTiter-Glo 2.0), HCC4006-OsiR. Type of assay: cell-based, human. The procedure:
as §4, §5, §6
In general terms: In ATP-based viability assays light output follows the ATP content of the culture.

For `Cc1c(N2CCC3(CC2)CO[C@@H](C)[C@H]3N)nc(C)n(-c2cccc(Cl)c2Cl)c1=O` (atropisomer, axis not shown; (Ra)) [Formula (10b), 6-((3S,4S)-4-amino-3-methyl-2-oxa-8-azaspiro[4.5]decan-8-yl)-3-(Ra)-(2,3-dichlorophenyl)-2,5-dimethylpyrimidin-4 (3H)-one], the IC50 in assay [1] was not above 50 nM. Moreover, the “suppression of DUSP6 mRNA levels” value is on record as “over 90%” in assay [2] (6-hour and 8-hour after formula (10b) dosing, 100 mg/kg); “suppresses DUSP6 mRNA levels” in assay [2] (across the three timepoints (best suppression), osimertinib 5 mg/kg, formula (10b) 100 mg/kg). Besides, the “tumor growth (tumor volume)” value in assay [3] was “suppresses the growth; also recorded: robust tumor regression”.

Regarding `C=CC(=O)Nc1cc(Nc2nccc(-c3cn(C)c4ccccc34)n2)c(OC)cc1N(C)CCN(C)C` [Osimertinib], the “shift in IC50, HCC4006-OsiR compared with HCC4006 parental cells” value in the assay with HCC4006-OsiR cells [4] is given as 20 fold. Further, the IC50 in the assay on HCC4006-OsiR cells [4] (Homo sapiens, 336 h, HCC4006-OsiR) was 257 ± 241 nM; with HCC4006 cells [5] it was 27 ± 7.9 nM; in the assay on HCC4006 cells [6], 12.2 ± 2.5 nM; in the assay with HCC4006-OsiR cells [7] (Homo sapiens, 72 h, HCC4006-OsiR cells, 3-day proliferation assay), more than 1000 nM. The anti-proliferative effect entry in the assay with HCC4006-OsiR cells [7] (1,000 nM (the highest concentration tested), HCC4006-OsiR, 3-day) is “no anti-proliferative effect”.

A word on the IC50: it is the concentration that inhibits the measured activity by half.
